Assay [1] concerns murine bone marrow-derived macrophages. In words: area under cytotoxicity dose-response curve (AUC (% cytotoxicity x dose, relative)); higher = more cytotoxic. Conditions: duration: 6 days; dose range: 0.13-80 uM, 8 points. The procedure, abridged:
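Values are the area under the cytotoxicity dose–response curve, calculated with GraphPad Prism version 10. Primary murine bone marrow-derived macrophages were exposed to final concentrations of 80–0.13 μM for 6 days, and viability was read by CellTiter-Glo luminescence with normalisation to vehicle and positive control wells.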

The subject of assay [2] is Mycobacterium tuberculosis CDC1551 (intracellular, in murine BMDM). Description: area under intracellular growth-inhibition dose-response curve (AUC (% inhibition x dose, relative)); higher = more potent. To be noted: duration: 6 days; dose range: 0.13-80 uM, 8 points. A digest of the protocol: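 The value is the area under the growth-inhibition dose–response curve, calculated in GraphPad Prism. Primary murine bone marrow-derived macrophages were seeded in 384-well opaque plates and, 24 h later, infected for 1 h with luciferase-expressing M. tuberculosis CDC1551 at multiplicity of infection 1. Cells were then exposed for 6 days to an 8-dose, 2.5-fold series (final 80–0.13 μM). Growth was read with the Bright-Glo luciferin assay and normalised to a reference drug control and to the lowest-concentration wells.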

Consider `COc1cccc2c1nc(C)c1cc(C)oc12`, for which the “area under cytotoxicity dose-response curve” value in assay [1] was under 0. Further, the “area under intracellular growth-inhibition dose-response curve” value in assay [2] is 121.

`Cc1nnc(SCC2=C(C(=O)O)N3C(=O)C(NC(=O)COc4ccc(F)cc4)C3SC2)s1` (configuration not stated): the “area under cytotoxicity dose-response curve” value in assay [1] worked out at 2.64. The “area under intracellular growth-inhibition dose-response curve” value in assay [2] turned out to be 212.

On to `COC(=O)C(C)NC(=S)N1CCN(c2c(F)cc3c(=O)c(C(=O)O)cn(C4CC4)c3c2OC)CC1C` (configuration not stated), for which the “area under cytotoxicity dose-response curve” value in assay [1] was 23.4. Besides, in assay [2], the “area under intracellular growth-inhibition dose-response curve” value turned out to be 90.

As for `CCOC(=O)c1ccc(N2CN(CC)CNC2=S)cc1`, the “area under cytotoxicity dose-response curve” value in assay [1] is 10.1. In assay [2], the “area under intracellular growth-inhibition dose-response curve” value was 254.

With `CCCC(C)NC(=O)c1ccc(F)cc1` (configuration not stated), the “area under cytotoxicity dose-response curve” value in assay [1] came to 4.45. Further, the “area under intracellular growth-inhibition dose-response curve” value in assay [2] stood at 248.

In the case of `COc1ccc(NC(=O)C(C)NC2=NS(=O)(=O)c3ccccc32)cc1S(N)(=O)=O` (configuration not stated), the “area under cytotoxicity dose-response curve” value in assay [1] was 8.48. The “area under intracellular growth-inhibition dose-response curve” value in assay [2] was 63.2.

For `CC[C@@H](C)[C@H](CNC)NC[C@@H](Cc1cccc2ccccc12)NCCc1cccc(C(F)(F)F)c1`, the “area under cytotoxicity dose-response curve” value in assay [1] was determined as 117. The “area under intracellular growth-inhibition dose-response curve” value in assay [2] is 144.

On to `O=C1N(c2nncs2)CCN1[N+](=O)[O-]`, for which, in assay [1], the “area under cytotoxicity dose-response curve” value is under 0. Further, the “area under intracellular growth-inhibition dose-response curve” value in assay [2] turned out to be 97.8.

Turning to `COc1ccc(CNc2ncc(-c3ccc(Br)cc3)n2C)cc1OC.O=C(O)C(=O)O`, in assay [1], the “area under cytotoxicity dose-response curve” value amounted to 42.6. The “area under intracellular growth-inhibition dose-response curve” value in assay [2] worked out at 113.

For the compound `O=C(NCc1ccncc1)c1cccc(S(=O)(=O)N2CCc3ccccc32)c1`, the “area under cytotoxicity dose-response curve” value in assay [1] turned out to be 39.9. Further, in assay [2], the “area under intracellular growth-inhibition dose-response curve” value was under 0.

Turning to `Cc1nn2c(O)cc(-c3ccc([N+](=O)[O-])cc3)nc2c1-c1ccccc1`, in assay [1], the “area under cytotoxicity dose-response curve” value came out at 99.5. Besides, in assay [2], the “area under intracellular growth-inhibition dose-response curve” value was 128.

Take `O=C(COc1ccc(Cl)cc1)N1CCCC1`: the “area under cytotoxicity dose-response curve” value in assay [1] is 64. In assay [2], the “area under intracellular growth-inhibition dose-response curve” value was 213.

With `COc1ccc(C=CC(C)=NNC(=O)c2ccncc2)cc1`, the “area under cytotoxicity dose-response curve” value in assay [1] is under 0. Besides, the “area under intracellular growth-inhibition dose-response curve” value in assay [2] came out at 254.

In the case of `Cc1cc(OCC(=O)N2CCCC2)cc(C)c1Cl`, in assay [1], the “area under cytotoxicity dose-response curve” value was under 0. For the same compound, the “area under intracellular growth-inhibition dose-response curve” value in assay [2] is 254.

Turning to `Cc1ccc(C)c2sc(N3CCN(C(=O)c4ccc([N+](=O)[O-])o4)CC3)nc12`, the “area under cytotoxicity dose-response curve” value in assay [1] was found to be 33.4. In assay [2], the “area under intracellular growth-inhibition dose-response curve” value was 3.34.

On to `O=C(OCC(=O)C12CC3CC(CC(C3)C1)C2)c1ccc(CO)cc1`, for which the “area under cytotoxicity dose-response curve” value in assay [1] was under 0. For the same compound, in assay [2], the “area under intracellular growth-inhibition dose-response curve” value was found to be 124.

On to `O=C(Nc1ccc(S(=O)(=O)NC2=NCCCCC2)cc1)c1cccs1`, for which, in assay [1], the “area under cytotoxicity dose-response curve” value was 3.27. For the same compound, the “area under intracellular growth-inhibition dose-response curve” value in assay [2] came to 43.4.

Take `CCOc1ccc(CCNC(=O)c2ccc3c(=O)[nH]c4c(C(=O)NC(C)C)sc(=S)n4c3c2)cc1`: the “area under cytotoxicity dose-response curve” value in assay [1] was found to be 10.1. Also, the “area under intracellular growth-inhibition dose-response curve” value in assay [2] amounted to 225.

For `O=C(/C=C/c1cccs1)N1CCCCC1`, in assay [1], the “area under cytotoxicity dose-response curve” value is under 0. Moreover, in assay [2], the “area under intracellular growth-inhibition dose-response curve” value amounted to 243.

As to `Clc1ccc(-c2nnc(C3CCCCC3)o2)cc1`, the “area under cytotoxicity dose-response curve” value in assay [1] is under 0. Moreover, in assay [2], the “area under intracellular growth-inhibition dose-response curve” value is 212.

As for `CCOC(=O)c1c(NC(=O)CN2C(=O)N(C)C3(CCCCC3)C2=O)sc(C(=O)N(C)C)c1C`, the “area under cytotoxicity dose-response curve” value in assay [1] was 38.6. Also, the “area under intracellular growth-inhibition dose-response curve” value in assay [2] was 65.

On to `O=C(NCc1ccccc1)C1COc2ccccc2O1` (configuration not stated), for which the “area under cytotoxicity dose-response curve” value in assay [1] was determined as 14.8. Further, in assay [2], the “area under intracellular growth-inhibition dose-response curve” value turned out to be 193.

Consider `CCC(=O)N1CCN(c2ccc(NC(=O)c3ccc([N+](=O)[O-])o3)cc2)CC1`, for which the “area under cytotoxicity dose-response curve” value in assay [1] worked out at 3.32. Further, the “area under intracellular growth-inhibition dose-response curve” value in assay [2] turned out to be 47.9.

For `NC(=S)N/N=C/c1ccc(C(F)(F)F)cc1`, the “area under cytotoxicity dose-response curve” value in assay [1] is 19.4. Besides, the “area under intracellular growth-inhibition dose-response curve” value in assay [2] amounted to 260.

`COc1ccc(CCNC(=O)c2ccc(Cl)cc2)cc1`: the “area under cytotoxicity dose-response curve” value in assay [1] is under 0. Further, in assay [2], the “area under intracellular growth-inhibition dose-response curve” value was 241.

With `CC(C)Oc1cccc(C(=O)N2CCCC2)c1`, the “area under cytotoxicity dose-response curve” value in assay [1] was found to be 54.6. Also, the “area under intracellular growth-inhibition dose-response curve” value in assay [2] is 43.1.

In the case of `CCOc1ccc(Br)cc1/C=N/NC(=O)c1ccncc1`, the “area under cytotoxicity dose-response curve” value in assay [1] is under 0. In assay [2], the “area under intracellular growth-inhibition dose-response curve” value was 268.

Regarding `CC1CCC(NC(=O)c2cc3c(s2)CCCC3)CC1` (configuration not stated), the “area under cytotoxicity dose-response curve” value in assay [1] was under 0. In assay [2], the “area under intracellular growth-inhibition dose-response curve” value was found to be 253.

With `COc1ccc(/C=N/NC(N)=S)cc1`, in assay [1], the “area under cytotoxicity dose-response curve” value is 4.45. Moreover, in assay [2], the “area under intracellular growth-inhibition dose-response curve” value amounted to 258.

As for `NC(=S)N/N=C/c1ccc(OC(=O)c2cccnc2)cc1`, the “area under cytotoxicity dose-response curve” value in assay [1] stood at 48. Further, the “area under intracellular growth-inhibition dose-response curve” value in assay [2] is 262.

`CC1CCC(C(C)C)C(OC(=O)Cn2c(-c3ccccc3)[n+](C)c3ccccc32)C1.[Cl-]` (configuration not stated): in assay [1], the “area under cytotoxicity dose-response curve” value turned out to be 12.5. Moreover, the “area under intracellular growth-inhibition dose-response curve” value in assay [2] is 124.

`COc1ccc(Cc2nnc(-c3ccccc3)o2)cc1`: the “area under cytotoxicity dose-response curve” value in assay [1] came out at 28.8. The “area under intracellular growth-inhibition dose-response curve” value in assay [2] was 243.

As for `O=C(CCCOc1ccc(Cl)cc1Cl)Nc1ccccc1C(=O)O`, the “area under cytotoxicity dose-response curve” value in assay [1] turned out to be 0.729. In assay [2], the “area under intracellular growth-inhibition dose-response curve” value came to 83.7.

`O=C(COC(=O)Cc1cccs1)NCC(=O)Nc1ccc(F)cc1`: the “area under cytotoxicity dose-response curve” value in assay [1] came out at 45.1. The “area under intracellular growth-inhibition dose-response curve” value in assay [2] was under 0.

With `CCOc1ncnc2c1oc1nc(CC(C)C)c3c(c12)CC(C)(C)OC3`, the “area under cytotoxicity dose-response curve” value in assay [1] was found to be 63.6. The “area under intracellular growth-inhibition dose-response curve” value in assay [2] is 115.

For `Cc1ccc2c(c1)sc(-c1ccc(N(C)C)cc1)[n+]2C.[I-]`, in assay [1], the “area under cytotoxicity dose-response curve” value was 125. Also, the “area under intracellular growth-inhibition dose-response curve” value in assay [2] is under 0.

Consider `Cc1ccccc1N1CCN(Cc2ccc([N+](=O)[O-])o2)CC1`, for which the “area under cytotoxicity dose-response curve” value in assay [1] is under 0. Besides, the “area under intracellular growth-inhibition dose-response curve” value in assay [2] was determined as 263.

With `CCN(CC)CCOC(=O)c1ccc(N/C=C(/C#N)c2nc(-c3ccc(OC)c(OC)c3)cs2)cc1`, the “area under cytotoxicity dose-response curve” value in assay [1] was 36.6. Besides, the “area under intracellular growth-inhibition dose-response curve” value in assay [2] amounted to 90.7.

With `CN(C)[C@@H]1C(=O)C(C(N)=O)=C(O)[C@@]2(O)C(O)=C3C(=O)c4c(O)cccc4[C@@](C)(O)C3[C@H](O)C12.Cl` (some centres not stated), the “area under cytotoxicity dose-response curve” value in assay [1] amounted to 62.5. The “area under intracellular growth-inhibition dose-response curve” value in assay [2] was found to be 271.

Consider `O=C(NCc1ccccc1)c1ccc(Br)o1`, for which the “area under cytotoxicity dose-response curve” value in assay [1] worked out at 19.6. For the same compound, the “area under intracellular growth-inhibition dose-response curve” value in assay [2] was 267.

Regarding `Cc1nnc(SCC2=C(C(=O)O)N3C(=O)C(NC(=O)Cn4nc(C(F)F)cc4C)C3SC2)s1` (configuration not stated), in assay [1], the “area under cytotoxicity dose-response curve” value is under 0. For the same compound, the “area under intracellular growth-inhibition dose-response curve” value in assay [2] worked out at 215.

Values taken from the supplement of paper PMC11997997.
